Measured values taken from patent EP4722219A1 (Gan & Lee Pharmaceuticals Co., Ltd., priority 2023, dated 2024).

Columns and labels:
Assay type in all cases: cell-based
AR protein = target: T1, AR protein (Homo sapiens, UniProt P10275, T878A); assay: AR protein degradation in LNCaP cells (Western blot); conditions: 8 hours; for Degradation of AR protein in LNCaP cells, 10 nM (%) / percent AR protein degradation at a fixed concentration at 0.01 µM: 10 nM; for Degradation of AR protein in LNCaP cells, 100 nM (%) / percent AR protein degradation at a fixed concentration at 0.1 µM: 100 nM
T1 construct: host or cells: LNCaP FGC
T1 sequence (P10275 1-920 T878A): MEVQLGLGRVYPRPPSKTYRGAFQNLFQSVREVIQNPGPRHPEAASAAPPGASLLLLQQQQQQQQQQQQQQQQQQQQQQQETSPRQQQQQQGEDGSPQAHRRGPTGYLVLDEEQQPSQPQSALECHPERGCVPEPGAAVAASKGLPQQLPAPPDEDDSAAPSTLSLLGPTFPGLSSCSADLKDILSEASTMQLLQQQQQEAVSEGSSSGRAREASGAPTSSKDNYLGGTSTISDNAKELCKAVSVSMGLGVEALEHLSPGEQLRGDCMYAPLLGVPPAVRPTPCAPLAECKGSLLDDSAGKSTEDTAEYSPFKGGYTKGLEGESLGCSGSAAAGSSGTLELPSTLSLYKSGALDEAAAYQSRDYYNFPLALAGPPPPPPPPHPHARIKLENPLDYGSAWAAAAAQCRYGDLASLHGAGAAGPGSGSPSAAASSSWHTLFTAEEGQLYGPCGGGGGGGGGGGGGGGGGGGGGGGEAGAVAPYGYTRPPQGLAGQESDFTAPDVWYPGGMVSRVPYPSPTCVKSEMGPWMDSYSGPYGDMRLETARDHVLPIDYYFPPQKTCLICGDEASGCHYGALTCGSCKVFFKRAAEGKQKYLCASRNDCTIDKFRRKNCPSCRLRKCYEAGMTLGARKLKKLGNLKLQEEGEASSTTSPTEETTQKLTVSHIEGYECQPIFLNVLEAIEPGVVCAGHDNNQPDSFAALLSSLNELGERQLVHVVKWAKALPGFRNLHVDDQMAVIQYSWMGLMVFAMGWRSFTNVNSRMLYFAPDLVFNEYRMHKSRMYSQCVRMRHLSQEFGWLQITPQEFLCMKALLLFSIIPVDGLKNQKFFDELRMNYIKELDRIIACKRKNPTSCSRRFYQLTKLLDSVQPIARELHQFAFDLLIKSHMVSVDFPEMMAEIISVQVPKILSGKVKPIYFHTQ
Protocol: At the same time, the corresponding solvent control was set and cultured for 8 hours. After 8 hours of culture, the culture medium was removed, the cells were washed with PBS, and RIPA lysis buffer containing 1% Protease Inhibitor Cocktail was added. After lysis and centrifugation, the total protein extract was obtained, and the protein concentration in the extract was detected by BCA method. Protein electrophoresis was performed using SDS-PAGE, and then the protein was transferred to a PVDF (Millipore Sigma catalog number PSRP010R5) membrane at a constant voltage of 100V for 60 minutes. The PVDF membrane was placed in a 5% milk powder 1 ×TBST solution and blocked at room temperature for 1 hour. […] The primary antibody solution was discarded and the PVDF membrane was washed with 1×TBST for 5 minutes each time, for three times. […] The secondary antibody solution was discarded and the PVDF membrane was washed with 1 ×TBST for 5 minutes each time, for three times. A dual-color infrared laser imaging system (Licor catalog number Odyssey CLX) was used for Western membrane imaging. The Image Studio software was used to analyze the grayscale of the bands. GAPDH protein bands were also detected for each sample as the reference. The AR protein degradation rate of the compound and the positive control sample was calculated based on the grayscale of the protein bands.

LNCaP cells = assay: Inhibition of LNCaP cell proliferation (WST-8); conditions: Homo sapiens, LNCaP FGC cells, 96 hours
Protocol: The inhibitory activity of compounds disclosed in the present invention on LNCaP cell proliferation
The cells were cultured overnight in a 37°C, 5% CO2 cell incubator. […] The final concentration of the compound was 9 concentration points of 5-fold serial dilution starting from 10 µM. […] The cells were cultured in a cell culture incubator at 37°C and 5% CO2 for 96 hours. On the sixth day, the 96-well cell culture plate was removed, and 1/10 volume of WST-8 (Beytime, C0040) reagent was added to each well. The absorbance at 450 nm was detected using a microplate reader (TECAN, F50).

VCaP cells = assay: Inhibition of VCaP cell proliferation (WST-8); conditions: Homo sapiens, 168 hours
Protocol: On the first day of the experiment, VCaP cells were seeded at a density of 15,000 cells/well in a 96-well plate using DMEM medium containing 10% fetal bovine serum, with 100µL of cell suspension per well, and cultured overnight in a cell incubator at 37°C and 5% CO2. On the second day, 100µL of the compound of the present invention and the positive control ARV-110 (source: Anaiji) prepared in culture medium at different concentrations were added to each well. The final concentration of the compound was 9 concentration points of 5-fold serial dilution starting from 10 µM. […] On the ninth day, the 96-well cell culture plate was removed and 1/10 volume of WST-8 (Beytime, C0040) reagent was added to each well. The absorbance at 450nm was measured using a microplate reader (TECAN, F50).

SMILES	Degradation of AR protein in LNCaP cells, 10 nM (%) (AR protein)	Degradation of AR protein in LNCaP cells, 100 nM (%) (AR protein)	IC50 (LNCaP cells) [µM]	IC50 (VCaP cells) [µM]	percent AR protein degradation at a fixed concentration at 0.01 µM (AR protein) [%]	percent AR protein degradation at a fixed concentration at 0.1 µM (AR protein) [%]
COc1cc(O[C@H]2C(C)(C)[C@H](NC(=O)c3ccc(N4CCC(CN5CCC6(CC5)COc5c6ccc(C(=O)N[C@H]6CCC(=O)NC6=O)c5OC)CC4)cc3)C2(C)C)ccc1C#N [A-P-78, 1'-((1-(4-(((1r,3r)-3-(4-cyano-3-methoxyphenoxy)-2,2,4,4-tetramethylcyclobutyl)carbamoyl)phenyl)piperidin-4-yl)methyl)-N-((S)-2,6-dioxopiperidin-3-yl)-7-methoxy-2H-spiro[benzofuran-3,4'-piperidine]-6-carboxamide]	-2	14	50.7	> 10	–	–
COc1cc2c(cc1C(=O)N[C@H]1CCC(=O)NC1=O)C1(CCN(CC3CCN(C(=O)c4ccc(N5CCC6(CC5)C[C@H](C)N(c5ccc(C#N)c(Cl)c5)C6)cc4)CC3)CC1)CO2 [A-P-82, 1'-((1-(4-((S)-2-(3-chloro-4-cyanophenyl)-3-methyl-2,8-diazaspiro[4.5]decan-8-yl)benzoyl)piperidin-4-yl)methyl)-N-((S)-2,6-dioxohesperidin-3-yl)-6-methoxy-2H-spiro[benzofuran-3,4'-piperidin]-5-carboxamide]	–	–	15.7	0.049	55	83
COc1cc2c(cc1C(=O)N[C@H]1CCC(=O)NC1=O)C1(CCN(CC3CCN(c4ccc(N5CCC6(CC5)C[C@H](C)N(c5ccc(C#N)c(Cl)c5)C6)cc4)CC3)CC1)CO2 [A-P-81, 1'-((1-(4-((S)-2-(3-chloro-4-cyanophenyl)-3-methyl-2,8-diazaspiro[4.5]decan-8-yl)phenyl)piperidin-4-yl)methyl)-N-((S)-2,6-dioxopiperidin-3-yl)-6-methoxy-2H-spiro[benzofuran-3,4'-piperidin]-5-carboxamide]	–	–	14.5	1.79	-15	30
N#Cc1cc2c(cc1Cl)CC1(CCN(c3ccc(C(=O)N4CCC(CN5CCC6(CCc7cc(C(=O)N[C@H]8CCC(=O)NC8=O)c(F)cc7O6)CC5)CC4)cc3)CC1)CO2 [A-P-51]	–	–	3.36	8.44	-23	12
C[C@H]1CC2(CCN(c3ccc(N4CCC(CN5CCN6c7ccc(C(=O)N[C@H]8CCC(=O)NC8=O)c(F)c7OC[C@H]6C5)CC4)cc3)CC2)CN1c1ccc(C#N)c(Cl)c1 [A-P-61, (R)-3-((1-(4-((S)-2-(3-chloro-4-cyanophenyl)-3-methyl-2,8-diazaspiro[4.5]decan-8-yl)phenyl)piperidin-4-yl)methyl)-N-((S)-2,6-dioxopiperidin-3-yl)-7-fluoro-1,2,3,4,4a,5-hexahydrobenzo[b]pyrazi no[1,2-d][1,4]oxazine-8-carboxamide]	–	–	0.21	0.19	24	79
N#Cc1cc2c(cc1Cl)OC1(CCN(c3ccc(C(=O)N4CCC(CN5CCC6(CCc7cc(C(=O)N[C@H]8CCC(=O)NC8=O)c(F)cc7O6)CC5)CC4)cc3)CC1)CO2 [A-P-46, (S)-1'-((1-(4-(7-chloro-6-cyano-3H-spiro[benzo[b][1,4]dioxo-2,4'-piperidin]-1'-yl)benzoyl)piperidin-4-yl)methyl)-N-(2,6-dioxopiperidin-3-yl)-7-fluorospiro[chroman-2,4'-piperidin]-6-carboxamide]	–	–	0.89	3.75	4	15
C[C@H]1CC2(CCN(c3ccc(C(=O)N4CCC(CN5CCN6c7ccc(C(=O)N[C@H]8CCC(=O)NC8=O)c(F)c7OC[C@H]6C5)CC4)cc3)CC2)CN1c1ccc(C#N)c(Cl)c1 [A-P-62, (R)-3-((1-(4-((S)-2-(3-chloro-4-cyanophenyl)-3-methyl-2,8-diazaspiro[4.5]decan-8-yl)benzoyl)piperidin-4-yl)methyl)-N-((S)-2,6-dioxopiperidin-3-yl)-7-fluoro-1,2,3,4,4a,5-hexahydrobenzo[b]pyrazi no[1,2-d][1,4]oxazine-8-carboxamide]	–	–	9.54	0.45	47	72
C[C@H]1CC2(CCN(c3ccc(N4CCC(CN5CCC6(CC5)CCC5(CC6)COc6c5ccc5c6CN(C6CCC(=O)NC6=O)C5=O)CC4)cc3)CC2)CN1c1ccc(C#N)c(Cl)c1 (stereo partly drawn) [A-P-8, (S)-1'-((1-(4-(6-chloro-7-cyanospiro-spiro[tryptophan-3,4'-piperidin]-1'-yl)benzoyl)piperidin-4-yl)methyl)-N-(2,6-dioxopiperidin-3-yl)-7-fluoro-spiro[tryptophan-2,4'-pyridyl]-6-carboxamide]	–	–	0.2	0.005	-4	63
CC1(CN2CCC3(CCc4cc(C(=O)N[C@H]5CCC(=O)NC5=O)c(F)cc4O3)CC2)CCN(c2ccc(C(=O)N[C@H]3C(C)(C)[C@H](Oc4ccc(C#N)c(Cl)c4)C3(C)C)cc2)CC1 [A-P-55]	-15	15	0.95	1.05	–	–
COc1cc(O[C@H]2C(C)(C)[C@H](NC(=O)c3ccc(N4CCC(CN5CCN6c7cc(F)c(C(=O)N[C@H]8CCC(=O)NC8=O)cc7OC[C@H]6C5)CC4)cc3)C2(C)C)ccc1C#N [A-P-63]	27	68	0.24	0.39	–	–
COc1cc2c(cc1C(=O)N[C@H]1CCC(=O)NC1=O)OCC21CCN(CC2CCN(c3ccc(N4CCC5(CC4)C[C@H](C)N(c4ccc(C#N)c(Cl)c4)C5)cc3)CC2)CC1 [A-P-80, 1'-((1-(4-((S)-2-(3-chloro-4-cyanophenyl)-3-methyl-2,8-diazaspiro[4.5]decan-8-yl)phenyl)piperidin-4-yl)methyl)-N-((S)-2,6-dioxopiperidin-3-yl)-5-methoxy-2H-spiro[benzofuran-3,4'-piperidin]-6-carboxamide]	–	–	1.94	0.051	22	73
N#Cc1cc2c(cc1Cl)OCC1(CCN(C(=O)c3ccc(N4CCC(CN5CCC6(CCc7cc(C(=O)N[C@H]8CCC(=O)NC8=O)c(F)cc7O6)CC5)CC4)cc3)CC1)O2 [A-P-44, (S)-1'-((1-(4-(6-chloro-7-cyano-3H-spiro[benzo[b][1,4]dioxane-2,4'-piperidin]-1'-carbonyl)phenyl)piperidin-4-yl)methyl)-N-(2,6-dioxopiperidin-3-yl)-7-fluorospiro[chroman-2,4'-piperidin]-6-carboxamide]	–	–	0.24	2.89	20	9
